Results: ChEMBL document CHEMBL5137061, “Design and Measurement of Drug Tissue Concentration Asymmetry and Tissue Exposure-Effect (Tissue PK-PD) Evaluation” (J Med Chem, 2022)

Experiments:
[1] = Tmax in BALBnu/CrlCrlj mouse xenografted with human KM12 cell tumor at 0.06 to 0.6 mg/kg, po measured after 48 hrs; assay type: ADME, organism-based; conditions: in vivo, dose 0.06-0.6 mg/kg
[2] = Tmax in BALBnu/CrlCrlj mouse at 0.1 to 1 mg/kg, po measured for 1 to 24 hrs; assay type: ADME, organism-based; conditions: in vivo, dose lower 0.1 mg/kg, time lower 1 hrs, dose upper 1 mg/kg, time upper 24 hrs

Tmax [1]: 7 h | Tmax [2]: 2 h
SMILES: CS(=O)(=O)c1ccc(C(F)(F)F)cc1NC(=O)Nc1cnc(Oc2ccc(-c3cc(Cl)cnc3N)cc2)nc1 [ONO-7579]
